Test results published in patent publication US9670161B2, “5-fluoro-N-(pyridin-2-yl)pyridin-2-amine derivatives containing a sulfone group” (BAYER PHARMA AKTIENGESELLSCHAFT, priority 2012, dated 2017).

Columns and labels:
CDK9/CycT1 = CDK9/CycT1 (Homo sapiens (Human), UniProt P50750); experiment: CDK9/CycT1 kinase assay (TR-FRET, 10 μM ATP); assay type: biochemical; conditions: Method 1a
Description: 1a. CDK9/CycT1 Kinase Assay:
CDK9/CycT1-inhibitory activity of compounds of the present invention was quantified employing the CDK9/CycT1 TR-FRET assay as described in the following paragraphs:
Recombinant full-length His-tagged human CDK9 and CycT1, expressed in insect cells and purified by Ni-NTA affinity chromatography, were purchased from Invitrogen (Cat. No PV4131). As substrate for the kinase reaction biotinylated peptide biotin-Ttds-YISPLKSPYKISEG (C-terminus in amid form) was used which can be purchased e.g. form the company JERINI Peptide Technologies (Berlin, Germany).
(§1) For the assay 50 nl of a 100 fold concentrated solution of the test compound in DMSO was pipetted into a black low volume 384 well microtiter plate (Greiner Bio-One, Frickenhausen, Germany), 2 μl of a solution of CDK9/CycT1 in aqueous assay buffer [50 mM Tris/HCl pH 8.0, 10 mM MgCl2, 1.0 mM dithiothreitol, 0.1 mM sodium ortho-vanadate, 0.01% (v/v) Nonidet-P40 (Sigma)] were added and the mixture was incubated for 15 min at 22° C. to allow pre-binding of the test compounds to the enzyme before the start of the kinase reaction. Then the kinase reaction was started by the addition of 3 μl of a solution of adenosine-tri-phosphate (ATP, 16.7 μM=>final conc. in the 5 μl assay volume is 10 μM) and substrate (1.67 μM=>final conc. in the 5 μl assay volume is 1 μM) in assay buffer and the resulting mixture was incubated for a reaction time of 25 min at 22° C. The concentration of CDK9/CycT1 was adjusted depending of the activity of the enzyme lot and was chosen appropriate to have the assay in the linear range, typical concentrations were in the range of 1 μg/mL. The reaction was stopped by the addition of 5 μl of a solution of TR-FRET detection reagents (0.2 μM streptavidine-XL665 [Cisbio Bioassays, Codolet, France] and 1 nM anti-RB(pSer807/pSer811)-antibody from BD Pharmingen [#558389] and 1.2 nM LANCE EU-W1024 labeled anti-mouse IgG antibody [Perkin-Elmer, product no. AD0077]) in an aqueous EDTA-solution (100 mM EDTA, 0.2% (w/v) bovine serum albumin in 100 mM HEPES/NaOH pH 7.0).
The resulting mixture was incubated 1 h at 22° C. to allow the formation of complex between the phosphorylated biotinylated peptide and the detection reagents. Subsequently the amount of phosphorylated substrate was evaluated by measurement of the resonance energy transfer from the Eu-chelate to the streptavidine-XL. Therefore, the fluorescence emissions at 620 nm and 665 nm after excitation at 350 nm was measured in a HTRF reader, e.g. a Rubystar (BMG Labtechnologies, Offenburg, Germany) or a Viewlux (Perkin-Elmer). The ratio of the emissions at 665 nm and at […] was taken as the measure for the amount of phosphorylated substrate. The data were normalised (enzyme reaction without inhibitor=0% inhibition, all other assay components but no enzyme=100% inhibition).

CDK2/CycE = CDK2/CycE (Homo sapiens (Human), UniProt P24941); experiment: CDK2/CycE high ATP kinase assay (TR-FRET, 2 mM ATP); assay type: biochemical; conditions: Method 2b
Description: 2b. CDK2/CycE High ATP Kinase Assay
CDK2/CycE-inhibitory activity of compounds of the present invention at 2 mM adenosine-tri-phosphate (ATP) was quantified employing the CDK2/CycE TR-FRET (TR-FRET=Time Resolved Fluorescence Energy Transfer) assay as described in the following paragraphs.
Recombinant fusion proteins of GST and human CDK2 and of GST and human CycE, expressed in insect cells (Sf9) and purified by Glutathion-Sepharose affinity chromatography, were purchase from ProQinase GmbH (Freiburg, Germany). As substrate for the kinase reaction biotinylated peptide biotin-Ttds-YISPLKSPYKISEG (C-terminus in amid form) was used which can be purchased e.g. form the company JERINI peptide technologies (Berlin, Germany).
as §1, with “CDK2/CycE” for “CDK9/CycT1”, “ATP (3.33 mM=>final conc. in the 5 μl assay volume is 2 mM) and substrate (1.25” for “of adenosine-tri-phosphate (ATP, 16.7”, “0.75” for “10 μM) and substrate (1.67 μM=>final conc. in the 5 μl assay volume is 1”, “15 ng/ml.” for “1 μg/mL.”, “AD0077, as an alternative a Terbium-cryptate-labeled anti-mouse IgG antibody from Cisbio Bioassays can be used])” for “AD0077])”
The resulting mixture was incubated 1 h at 22° C. to allow the formation of complex between the phosphorylated biotinylated peptide and the detection reagents. Subsequently the amount of phosphorylated substrate was evaluated by measurement of the resonance energy transfer from the Eu-chelate to the streptavidine-XL. Therefore, the fluorescence emissions at 620 nm and 665 nm after excitation at 350 nm were measured in a TR-FRET reader, e.g. a Rubystar (BMG Labtechnologies, Offenburg, Germany) or a Viewlux (Perkin-Elmer). The ratio of the emissions at 665 nm and at […] was taken as the measure for the amount of phosphorylated substrate. The data were normalised (enzyme reaction without inhibitor=0% inhibition, all other assay components but no enzyme=100% inhibition).

CDK9/CycT1, sequence (P50750 whole entry): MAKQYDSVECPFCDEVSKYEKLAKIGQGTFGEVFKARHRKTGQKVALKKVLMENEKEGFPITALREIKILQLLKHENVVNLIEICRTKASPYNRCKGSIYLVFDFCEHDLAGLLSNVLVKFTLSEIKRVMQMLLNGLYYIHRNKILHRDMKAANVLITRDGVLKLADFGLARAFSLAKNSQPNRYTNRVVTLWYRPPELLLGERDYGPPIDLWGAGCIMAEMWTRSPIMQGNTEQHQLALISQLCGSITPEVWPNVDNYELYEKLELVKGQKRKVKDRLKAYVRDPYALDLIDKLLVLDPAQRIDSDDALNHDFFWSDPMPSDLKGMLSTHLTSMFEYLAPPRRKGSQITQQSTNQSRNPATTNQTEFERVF
CDK9/CycT1, sequence (O60563 whole entry partner): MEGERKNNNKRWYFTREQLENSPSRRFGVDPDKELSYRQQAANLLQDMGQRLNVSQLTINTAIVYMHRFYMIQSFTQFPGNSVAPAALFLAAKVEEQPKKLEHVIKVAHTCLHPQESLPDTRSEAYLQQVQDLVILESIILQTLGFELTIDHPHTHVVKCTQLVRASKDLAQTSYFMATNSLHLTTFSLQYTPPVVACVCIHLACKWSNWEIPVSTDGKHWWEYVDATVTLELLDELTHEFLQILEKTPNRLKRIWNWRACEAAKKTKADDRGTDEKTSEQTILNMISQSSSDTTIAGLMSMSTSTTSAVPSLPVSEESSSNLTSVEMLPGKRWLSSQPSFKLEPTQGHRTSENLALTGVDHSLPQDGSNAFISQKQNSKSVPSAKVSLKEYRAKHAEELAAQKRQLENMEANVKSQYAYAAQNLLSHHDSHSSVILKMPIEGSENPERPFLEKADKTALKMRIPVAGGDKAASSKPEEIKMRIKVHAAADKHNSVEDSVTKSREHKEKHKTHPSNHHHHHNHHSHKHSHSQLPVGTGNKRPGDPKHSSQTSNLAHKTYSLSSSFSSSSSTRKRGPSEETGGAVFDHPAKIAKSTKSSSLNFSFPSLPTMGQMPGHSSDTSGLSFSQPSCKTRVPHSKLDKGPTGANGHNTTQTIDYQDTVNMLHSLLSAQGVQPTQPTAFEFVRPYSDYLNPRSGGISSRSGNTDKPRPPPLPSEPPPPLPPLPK

Compound | IC50 (CDK9/CycT1) | IC50 (CDK2/CycE)
COc1cc(F)ccc1-c1cc(Nc2cc(CS(C)(=O)=O)ccn2)ncc1F [Example 1, 5-Fluoro-4-(4-fluoro-2-methoxyphenyl)-N-{4-[(methylsulfonyl)methyl]pyridin-2-yl}pyridin-2-amine] | 2 nM | 2180 nM
COc1cc(F)ccc1-c1cc(Nc2cc(CS(C)(=O)=O)cc(C)n2)ncc1F [Example 2, 5-Fluoro-4-(4-fluoro-2-methoxyphenyl)-N-{6-methyl-4-[(methylsulfonyl)methyl]pyridin-2-yl}pyridin-2-amine] | 3 nM | 625 nM
COc1cc(F)ccc1-c1cc(Nc2cc(CS(C)(=O)=O)cc(F)n2)ncc1F [Example 3, 5-Fluoro-4-(4-fluoro-2-methoxyphenyl)-N-{6-fluoro-4-[(methylsulfonyl)methyl]pyridin-2-yl}pyridin-2-amine] | 3 nM | 787 nM
COc1cc(F)ccc1-c1cc(Nc2cc(CS(C)(=O)=O)cc(C(F)(F)F)n2)ncc1F [Example 4, 5-Fluoro-4-(4-fluoro-2-methoxyphenyl)-N-{4-[(methylsulfonyl)methyl]-6-(trifluoromethyl)pyridin-2-yl}pyridin-2-amine] | 4 nM | 169 nM
COc1cc(F)ccc1-c1cc(Nc2cc(CS(C)(=O)=O)cc(C(F)F)n2)ncc1F [Example 5, N-{6-(Difluoromethyl)-4-[(methylsulfonyl)methyl]pyridin-2-yl}-5-fluoro-4-(4-fluoro-2-methoxyphenyl)pyridin-2-amine] | 2 nM | 103 nM
